Measured values taken from patent US6362369B1, “Phthalic acid diamide derivatives fluorine-containing aniline compounds as starting material, agricultural and horticultural insecticides, and a method for application of the insecticides” (Nihon Nohyaku Co., Ltd., priority 1997, dated 2002).

Tests used:
Type in all cases: in vivo
[1] = test system: diamondback moth (Plutella xylostella); experiment: Insecticidal effect on diamondback moth (Test Example 1); conditions: for Insecticidal effect on diamondback moth (Test Example 1), judged grade: mortality judged according to the criterion shown in Test Example 1; for Insecticidal effect, Test Example 1 / Insecticidal effect (Test Example 1), judged from mortality: diamondback moth; for Insecticidal effect (Test Example 1), judged from mortality: judged by the criterion of Test Example 1
Procedure, shortened: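 Triplicate groups of 10 insects were scored: six days after immersion of oviposited Chinese cabbage seedlings and holding at 25 °C post air-drying, hatched larvae were counted. Mortality derived from these counts and insecticidal effect judged by a set criterion.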

[2] = test system: common cutworm (Spodoptera Litura); experiment: Insecticidal effect on common cutworm (Test Example 2); conditions: 500 ppm, 25° C.; for Insecticidal effect on common cutworm (Test Example 2), judged grade / Insecticidal effect (Test Example 2), judged from mortality: cabbage leaf dip; for Insecticidal effect on common cutworm (Test Example 2), judged grade: second-instar larvae; for Insecticidal effect on common cutworm (Test Example 2), judged grade / Insecticidal effect, Test Example 2: eight days after inoculation; for Insecticidal effect, Test Example 2: cabbage leaf immersed; for Insecticidal effect (Test Example 2), judged from mortality: 8 days after inoculation
Procedure, shortened: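 Second-instar larvae placed in 9 cm Petri dishes with air-dried treated material, held at 25 °C. Dead and live insects counted 8 days after inoculation; mortality calculated and scored against a set criterion. Triplicate groups of 10 insects.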

[3] = test system: rice leafroller (Cnaphalocrocis medinalis); experiment: Insecticidal effect on rice leafroller (Test Example 3); conditions: 500 ppm, 25° C., humidity 70%; for Insecticidal effect on rice leafroller (Test Example 3), judged grade / Insecticidal effect (Test Example 3), judged from mortality: rice lamina dip; for Insecticidal effect on rice leafroller (Test Example 3), judged grade: third-instar larvae; for Insecticidal effect on rice leafroller (Test Example 3), judged grade / Insecticidal effect, Test Example 3: four days after inoculation; for Insecticidal effect, Test Example 3: rice lamina immersed; for Insecticidal effect (Test Example 3), judged from mortality: 4 days after inoculation
Procedure, shortened: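 Insecticidal effect is judged by a predefined criterion from dead/alive counts four days after infesting air-dried lamina with third-instar larvae, kept on moistened filter paper at 25° C, 70% humidity.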

[4] = judged by the mortality criterion of Test Example 1
[5] = second-instar larvae of common cutworm
[6] = third-instar larvae of rice leafroller
[7] = mortality judged by criterion of Test Example 1
[8] = common cutworm second-instar larvae
[9] = rice leafroller third-instar larvae

For `Cc1cc(OC(F)F)ccc1NC(=O)c1cccc(Cl)c1C(=O)NC1CC1` [compound 849], the “Insecticidal effect on diamondback moth (Test Example 1), judged grade” value (from here on “Insecticidal effect on diamondback moth”) [1] was “A (100)”, the “Insecticidal effect on common cutworm (Test Example 2), judged grade” value (from here on “Insecticidal effect on common cutworm”) [2] was “B (99-90)” and the “Insecticidal effect on rice leafroller (Test Example 3), judged grade” value (“Insecticidal effect on rice leafroller” below) [3] was “A (100)”.
In the case of `Cc1cc(Oc2c(F)c(F)c(F)c(F)c2F)ccc1NC(=O)c1cccc(I)c1C(=O)NC(C)C` [compound 397], the “Insecticidal effect, Test Example 1” value [1, 4] is reported as “A (100)”, the “Insecticidal effect, Test Example 2” value [2, 5] is reported as “A (100)” and the “Insecticidal effect, Test Example 3” value [3, 6] is reported as “A (100)”.
For `Cc1cc(C(F)(F)C(F)(F)F)ccc1NC(=O)c1cccc(Cl)c1C(=O)NC(C)CF` (stereo not drawn) [compound 1651], the “Insecticidal effect (Test Example 1), judged from mortality” value [1] was “A (100)”, the “Insecticidal effect (Test Example 2), judged from mortality” value [2, 5] was “A (100)” and the “Insecticidal effect (Test Example 3), judged from mortality” value [3, 6] was “A (100)”.
`Cc1cc(C#Cc2ccc(Cl)cc2Cl)ccc1NC(=O)c1cccc(Cl)c1C(=O)NC(C)C` [compound 971] was tested, and the “Insecticidal effect, Test Example 1” value [1, 7] was “A (100)”, the “Insecticidal effect, Test Example 2” value [2, 8] was “A (100)” and the “Insecticidal effect, Test Example 3” value [3, 9] was “A (100)”.
For `CCC(C)NC(=O)c1c(I)cccc1C(=O)Nc1ccc(C(F)(F)C(F)(F)F)cc1F` (stereo not drawn) [compound 1472], the “Insecticidal effect (Test Example 1), judged from mortality” value [1] was “A (100)”, the “Insecticidal effect (Test Example 2), judged from mortality” value [2, 5] was “A (100)” and the “Insecticidal effect (Test Example 3), judged from mortality” value [3, 6] was “A (100)”.
For `Cc1cc(C(F)(C(F)(F)F)C(F)(F)F)ccc1NC(=O)c1cccc(I)c1C(=O)NC(C)c1cccs1` (stereo not drawn) [compound 1800], the “Insecticidal effect (Test Example 1), judged from mortality” value [1] was “A (100)”, the “Insecticidal effect (Test Example 2), judged from mortality” value [2, 5] was “A (100)” and the “Insecticidal effect (Test Example 3), judged from mortality” value [3, 6] was “A (100)”.
In the case of `Cc1cc(OC(F)(F)C(F)F)ccc1NC(=O)c1c(I)cccc1C(=O)NC(C)C` [compound 453], the “Insecticidal effect on diamondback moth” value [1] is reported as “A (100)”, the “Insecticidal effect on common cutworm” value [2] is reported as “D (79-50)” and the “Insecticidal effect on rice leafroller” value [3] is reported as “A (100)”.
For `Cc1cc(I)ccc1NC(=O)c1cccc(F)c1C(=O)NC(C)C` [compound 492], the “Insecticidal effect on diamondback moth” value [1] was “A (100)”, the “Insecticidal effect on common cutworm” value [2] was “A (100)” and the “Insecticidal effect on rice leafroller” value [3] was “A (100)”.
In the case of `Cc1cc(C(F)(F)C(F)(F)F)ccc1NC(=O)c1cccc(Cl)c1C(=O)NC(C)(C)Cc1ccccc1` [compound 1418], the “Insecticidal effect, Test Example 1” value [1, 7] is reported as “A (100)”, the “Insecticidal effect, Test Example 2” value [2, 8] is reported as “A (100)” and the “Insecticidal effect, Test Example 3” value [3, 9] is reported as “A (100)”.
`CC(C)NC(=O)c1c(Cl)cccc1C(=O)Nc1ccc(Cl)cc1F` [compound 115] was tested, and the “Insecticidal effect, Test Example 1” value [1, 4] was “A (100)”, the “Insecticidal effect, Test Example 2” value [2, 5] was “C (89-80)” and the “Insecticidal effect, Test Example 3” value [3, 6] was “A (100)”.
With `Cc1cc(Cl)ccc1NC(=O)c1cccc(Br)c1C(=O)NC(C)C` [compound 267] the “Insecticidal effect, Test Example 1” value [1, 4] was “A (100)”, the “Insecticidal effect, Test Example 2” value [2, 5] was “A (100)” and the “Insecticidal effect, Test Example 3” value [3, 6] was “A (100)”.
`Cc1cc(C(F)(C(F)(F)F)C(F)(F)F)ccc1NC(=O)c1cc(I)ccc1C(=O)NC(C)C` [compound 1251] was tested, and the “Insecticidal effect, Test Example 1” value [1, 7] was “A (100)”, the “Insecticidal effect, Test Example 2” value [2, 8] was “A (100)” and the “Insecticidal effect, Test Example 3” value [3, 9] was “A (100)”.
`Cc1cc(C(F)(F)C(F)(F)C(F)(F)C(F)(F)F)ccc1NC(=O)c1c(Cl)cccc1C(=O)NC(C)C` [compound 225] was tested, and the “Insecticidal effect, Test Example 1” value [1, 4] was “A (100)”, the “Insecticidal effect, Test Example 2” value [2, 5] was “B (99-90)” and the “Insecticidal effect, Test Example 3” value [3, 6] was “A (100)”.
In the case of `Cc1cc(Oc2ncc(C(F)(F)F)cc2Cl)ccc1NC(=O)c1cccc(Br)c1C(=O)NC(C)C` [compound 298], the “Insecticidal effect, Test Example 1” value [1, 4] is reported as “A (100)”, the “Insecticidal effect, Test Example 2” value [2, 5] is reported as “A (100)” and the “Insecticidal effect, Test Example 3” value [3, 6] is reported as “A (100)”.
In the case of `Cc1cc(Cl)ccc1NC(=O)c1cccc(F)c1C(=O)NC(C)C` [compound 490], the “Insecticidal effect on diamondback moth” value [1] is reported as “A (100)”, the “Insecticidal effect on common cutworm” value [2] is reported as “A (100)” and the “Insecticidal effect on rice leafroller” value [3] is reported as “A (100)”.
In the case of `C#CC(C)(C)NC(=O)c1c(Cl)cccc1C(=O)Nc1ccc(C(F)(F)C(F)(F)F)cc1C` [compound 1466], the “Insecticidal effect (Test Example 1), judged from mortality” value [1] is reported as “A (100)”, the “Insecticidal effect (Test Example 2), judged from mortality” value [2, 5] is reported as “A (100)” and the “Insecticidal effect (Test Example 3), judged from mortality” value [3, 6] is reported as “A (100)”.
In the case of `Cc1c(NC(=O)c2cccc([N+](=O)[O-])c2C(=O)NC(C)C)cccc1OC(F)(F)C(F)Cl` (stereo not drawn) [compound 713], the “Insecticidal effect on diamondback moth” value [1] is reported as “A (100)”, the “Insecticidal effect on common cutworm” value [2] is reported as “B (99-90)” and the “Insecticidal effect on rice leafroller” value [3] is reported as “D (79-50)”.
In the case of `CCN(CC)C(=O)c1c(I)cccc1C(=O)Nc1ccc2c(c1)OC(F)(F)C(F)O2` (stereo not drawn) [compound 1167], the “Insecticidal effect, Test Example 1” value [1, 7] is reported as “A (100)”, the “Insecticidal effect, Test Example 2” value [2, 8] is reported as “A (100)” and the “Insecticidal effect, Test Example 3” value [3, 9] is reported as “A (100)”.
